Here are results for 1 compound from patent publication US20050153406A1, “Process for producing solution containing ubiquinone-10” (priority 2002, published 2005).

The data set is described as follows: Solubility of ubiquinone-10 in aqueous methanol solution. The following applies: aqueous methanol solutions of varying concentration at 20, 30, 50 and 70° C. (FIG. 1). It counts as physicochemical. From the text: Using a standard ubiquinone-10 (manufactured by Wako Pure Chemical Industries Co., Ltd.), the solubility of ubiquinone-10 is an aqueous methanol solution was examined in terms of the relation between the concentration of the solution and temperature.

Regarding `COC1=C(OC)C(=O)C(C/C=C(\C)CC/C=C(\C)CC/C=C(\C)CC/C=C(\C)CC/C=C(\C)CC/C=C(\C)CC/C=C(\C)CC/C=C(\C)CC/C=C(\C)CCC=C(C)C)=C(C)C1=O` [ubiquinone-10], the “solubility of ubiquinone-10 in aqueous methanol solution” value is “increased in proportion to the methanol concentration and the temperature of the aqueous methanol solution”.
